According to PubChem BioAssay (NCI):
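Dose response: 5 concentrations. Exposure: 48 h. Format: 96-well plates. Endpoint: linear interpolation; highest concentration if not reached. TGI denotes the concentration required for complete inhibition of growth.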

Columns and labels:
Assay in all cases: NCI-60 cell line screen, 48 h
[1] = system: SF-539 CNS
[2] = system: NCI-H522 lung
[3] = system: OVCAR-5 ovarian
[4] = system: COLO 205 colon
[5] = system: HCT-15 colon
[6] = system: T-47D breast
[7] = system: HS 578T breast
[8] = system: HCC-2998 colon
[9] = system: MALME-3M melanoma
[10] = system: A549 NSCLC
[11] = system: KM12 colon
[12] = system: SK-MEL-28 melanoma
[13] = system: NCI-H23 lung
[14] = system: NCI-H460 lung
[15] = system: IGROV1 ovarian
[16] = system: HL-60(TB) leukemia
[17] = system: ACHN renal
[18] = system: U251 CNS
[19] = system: SNB-75 CNS
[20] = system: NCI-H226 lung
[21] = system: SN12C renal
[22] = system: M14 melanoma
[23] = system: DU-145 prostate
[24] = system: SF-295 CNS
[25] = system: NCI/ADR-RES ovarian
[26] = system: MDA-MB-231 breast
[27] = system: CAKI-1 renal
[28] = system: MDA-MB-435
[29] = system: UO-31 renal
[30] = system: A498 renal
[31] = system: SNB-19 CNS
[32] = system: 786-0 renal
[33] = system: SF-268 CNS
[34] = system: UACC-62 melanoma
[35] = system: UACC-257 melanoma
[36] = system: HOP-62 NSCLC
[37] = system: SR leukemia
[38] = system: SK-MEL-5 melanoma
[39] = system: EKVX NSCLC
[40] = system: OVCAR-8 ovarian
[41] = system: TK-10 renal
[42] = system: BT-549 breast
[43] = system: RPMI-8226 leukemia
[44] = system: CCRF-CEM leukemia
[45] = system: SW-620 colon
[46] = system: HOP-92 NSCLC
[47] = system: OVCAR-4 ovarian
[48] = system: MOLT-4 leukemia
[49] = system: LOX IMVI melanoma
[50] = system: HT29 colon
[51] = system: SK-OV-3 ovarian
[52] = system: RXF 393 renal
[53] = system: PC-3 prostate
[54] = system: SK-MEL-2 melanoma
[55] = system: K-562 leukemia
[56] = system: MCF7 breast
[57] = system: OVCAR-3 ovarian
[58] = system: HCT-116 colon

Question: Which TGI [1] does the source give for `CCOC(=O)/C=C(\C)Sc1cc(O)c2ccccc2c1O` here?
Answer: The TGI was 45 µM.

Question: And the TGI [2]?
Answer: Its TGI is 24.9 µM.

Question: What about the TGI [3] of the same molecule?
Answer: Its TGI is 54.3 µM.

Question: And the TGI [4]?
Answer: The TGI was 35.1 µM.

Question: And the TGI [5]?
Answer: The TGI was 37.8 µM.

Question: What about the TGI [6] of the same molecule?
Answer: Its TGI is 9.9 µM.

Question: What about the TGI [7] of the same molecule?
Answer: The TGI was > 100 µM.

Question: And the TGI [8]?
Answer: Its TGI is 28.1 µM.

Question: What about the TGI [9] of the same molecule?
Answer: Its TGI is 29.1 µM.

Question: What about the TGI [10] of the same molecule?
Answer: The TGI was 85.9 µM.

Question: What about the TGI [11] of the same molecule?
Answer: The TGI was 75.4 µM.

Question: What about the TGI [12] of the same molecule?
Answer: Its TGI is 30.4 µM.

Question: And the TGI [13]?
Answer: The TGI was > 100 µM.

Question: And the TGI [14]?
Answer: Its TGI is 44.6 µM.

Question: What about the TGI [15] of the same molecule?
Answer: The TGI was 27.7 µM.

Question: What about the TGI [16] of the same molecule?
Answer: The TGI was 88.7 µM.

Question: What about the TGI [17] of the same molecule?
Answer: Its TGI is 29.7 µM.

Question: What about the TGI [18] of the same molecule?
Answer: The TGI was 40.9 µM.

Question: And the TGI [19]?
Answer: Its TGI is 23.8 µM.

Question: What about the TGI [20] of the same molecule?
Answer: The TGI was 61.3 µM.

Question: What about the TGI [21] of the same molecule?
Answer: The TGI was 83.5 µM.

Question: And the TGI [22]?
Answer: The TGI was 52.5 µM.

Question: What about the TGI [23] of the same molecule?
Answer: The TGI was > 100 µM.

Question: And the TGI [24]?
Answer: The TGI was 51.6 µM.

Question: And the TGI [25]?
Answer: Its TGI is 86.7 µM.

Question: What about the TGI [26] of the same molecule?
Answer: The TGI was 44.2 µM.

Question: What about the TGI [27] of the same molecule?
Answer: Its TGI is 46.8 µM.

Question: And the TGI [28]?
Answer: Its TGI is 5.8 µM.

Question: What about the TGI [29] of the same molecule?
Answer: Its TGI is 18.9 µM.

Question: What about the TGI [30] of the same molecule?
Answer: The TGI was 41.1 µM.

Question: And the TGI [31]?
Answer: Its TGI is 34.1 µM.

Question: And the TGI [32]?
Answer: Its TGI is 44.2 µM.

Question: And the TGI [33]?
Answer: Its TGI is 25 µM.

Question: And the TGI [34]?
Answer: Its TGI is 60.1 µM.

Question: And the TGI [35]?
Answer: The TGI was 35.6 µM.

Question: What about the TGI [36] of the same molecule?
Answer: Its TGI is 39.8 µM.

Question: And the TGI [37]?
Answer: Its TGI is > 100 µM.

Question: What about the TGI [38] of the same molecule?
Answer: The TGI was 26.6 µM.

Question: What about the TGI [39] of the same molecule?
Answer: The TGI was 81.9 µM.

Question: What about the TGI [40] of the same molecule?
Answer: The TGI was 42.4 µM.

Question: And the TGI [41]?
Answer: The TGI was 53.8 µM.

Question: What about the TGI [42] of the same molecule?
Answer: Its TGI is 40.9 µM.

Question: What about the TGI [43] of the same molecule?
Answer: Its TGI is > 100 µM.

Question: What about the TGI [44] of the same molecule?
Answer: Its TGI is > 100 µM.

Question: And the TGI [45]?
Answer: The TGI was > 100 µM.

Question: And the TGI [46]?
Answer: Its TGI is 62.4 µM.

Question: What about the TGI [47] of the same molecule?
Answer: The TGI was 32 µM.

Question: And the TGI [48]?
Answer: The TGI was > 100 µM.

Question: And the TGI [49]?
Answer: The TGI was 92.2 µM.

Question: What about the TGI [50] of the same molecule?
Answer: The TGI was 42.9 µM.

Question: What about the TGI [51] of the same molecule?
Answer: The TGI was 66.4 µM.

Question: And the TGI [52]?
Answer: The TGI was 31.9 µM.

Question: What about the TGI [53] of the same molecule?
Answer: Its TGI is 67.2 µM.

Question: And the TGI [54]?
Answer: The TGI was 50.5 µM.

Question: And the TGI [55]?
Answer: The TGI was > 100 µM.

Question: And the TGI [56]?
Answer: The TGI was 65.6 µM.

Question: What about the TGI [57] of the same molecule?
Answer: Its TGI is > 100 µM.

Question: And the TGI [58]?
Answer: Its TGI is > 100 µM.
